Results on 33 molecules are retold here after patent publication US9150592B2, “Heterocyclic nuclear hormone receptor modulators” (AbbVie Inc., priority 2012, dated 2015).

Assay [1] addresses T1, Glucocorticoid Receptor (GR) (Homo sapiens, UniProt P04150).
T1 construct: purchased Invitrogen P2893
T1 sequence (P04150 1-777): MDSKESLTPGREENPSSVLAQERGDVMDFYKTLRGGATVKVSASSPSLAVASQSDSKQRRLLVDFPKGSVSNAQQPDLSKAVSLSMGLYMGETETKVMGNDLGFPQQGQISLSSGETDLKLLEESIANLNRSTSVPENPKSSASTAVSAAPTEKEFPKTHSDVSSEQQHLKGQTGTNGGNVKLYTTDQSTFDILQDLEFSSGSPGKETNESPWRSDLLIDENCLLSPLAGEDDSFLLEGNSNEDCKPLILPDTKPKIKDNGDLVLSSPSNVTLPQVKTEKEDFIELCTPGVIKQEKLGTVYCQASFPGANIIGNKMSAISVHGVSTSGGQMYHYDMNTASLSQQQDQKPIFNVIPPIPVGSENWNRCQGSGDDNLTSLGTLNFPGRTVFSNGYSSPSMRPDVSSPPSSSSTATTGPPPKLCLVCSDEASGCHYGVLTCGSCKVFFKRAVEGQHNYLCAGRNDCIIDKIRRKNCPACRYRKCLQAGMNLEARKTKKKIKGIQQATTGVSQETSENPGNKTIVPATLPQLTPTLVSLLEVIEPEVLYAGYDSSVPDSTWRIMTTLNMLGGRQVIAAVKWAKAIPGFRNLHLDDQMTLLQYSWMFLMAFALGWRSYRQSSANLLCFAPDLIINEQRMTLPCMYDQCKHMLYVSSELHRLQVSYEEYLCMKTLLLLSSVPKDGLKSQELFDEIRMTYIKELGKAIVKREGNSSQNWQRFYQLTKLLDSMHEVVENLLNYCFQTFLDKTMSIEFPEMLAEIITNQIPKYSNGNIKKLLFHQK
Briefly: GR Fluorescence Polarization Assay (PolarScreen Glucocorticoid Receptor Competitor Assay, Red). Particulars: IC50 class ranges, read-out: GR binding. The procedure, abridged: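 Competitive fluorescence-polarization assay using a red fluorescent glucocorticoid tracer with human GR in kit buffer. Compounds serially diluted 1:4 in DMSO, incubated with tracer and GR overnight at 4° C, then polarization read.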

Assay [2] concerns IL-6 in A549 cells stimulated with IL-1β. Kind of assay: A549 Cell Assay to Measure Inflammation Markers (inhibition of IL-1β-induced IL-6). Particulars: Homo sapiens, A549, A549 Cell Assay to Measure Inflammation Markers; intrinsic activity, Emax class ranges. The class given is cell-based. In a few lines:
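Compound pre-incubated with A549 cells 1 h at 37 °C, then stimulated with IL-1β (1 ng/mL final, 0.1% DMSO). Supernatant IL-6 quantified by MSD immunoassay after a further incubation. IC50 and Emax derived.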

Regarding `Cc1cc(Cl)ccc1[C@@H]1S[C@H](CCO)CNc2c1c(C)nn2C` (single isomer, unassigned) [M.17, 2-[4-(4-chloro-2-methyl-phenyl)-1,3-dimethyl-4,6,7,8-tetrahydro-1H-pyrazolo[3,4-e][1,4]thiazepin-6-yl]-ethanol], the IC50 in assay [1] lay within 100 to 1000 nM. This molecule gave an Emax in assay [2] of under 50%.
Take `C=Cc1cc(Cl)ccc1C1SCCNc2c1c(-c1ccccn1)nn2C` (stereo not drawn): the IC50 in assay [1] is under 100 nM. Besides, the Emax in assay [2] is over 60%.
On to `CCn1nc(-c2ccccn2)c2c1NCCSC2c1ccc(C(=O)Nc2nncs2)cc1C` (stereo not drawn) [S.3], for which, in assay [1], the IC50 was under 100 nM. For the same molecule, the Emax in assay [2] is under 50%.
For the molecule `Cc1nn(C)c2c1C(c1ccc(Br)cc1Cl)SC(C)(C)CN2` (stereo not drawn) [D.60], the IC50 in assay [1] was under 100 nM. In assay [2], the Emax is over 50%.
As to `Cc1nn(C)c2c1C(c1ccc(Cl)cc1Cl)SC1(CCOCC1)CN2` (stereo not drawn) [D.67], the IC50 in assay [1] is under 100 nM. This molecule also showed an Emax in assay [2] of under 50%.
Consider `CC(C)Cc1nn(C)c2c1C(c1ccc(Cl)cc1Cl)SCCN2` (stereo not drawn) [D.92], for which the IC50 in assay [1] was under 100 nM. For the same molecule, in assay [2], the Emax was under 50%.
For `Cn1nc(C2CC2)c2c1NCC(C)(C)SC2c1ccc(Cl)cc1C(F)(F)F` (stereo not drawn) [D.48], in that order: 100 to 1000 nM and under 50%.
For `Cc1cc(F)ccc1C1SC(C)(C)CNc2c1c(C1CC1)nn2C` (stereo not drawn) [D.56], the IC50 in assay [1] is under 100 nM. This molecule showed a maximal effect (Emax) in assay [2] of under 50%.
On to `Cc1cc(Br)ccc1[C@H]1SC[C@H](CC#N)Nc2c1c(-c1ccccn1)nn2C` (racemic), for which the IC50 in assay [1] is under 100 nM. In assay [2], this molecule registered an Emax of over 50%.
With `Cc1cc2c(cnn2-c2ccc(F)cc2)cc1C1SCCNc2c1c(-c1ccccn1)nn2C` (stereo not drawn) [D.109], the IC50 in assay [1] was under 100 nM. The Emax in assay [2] is over 70%.
For `Cc1cc(CCCO)ccc1[C@@H]1SC[C@H](C)Nc2c1c(-c1ccccn1)nn2C` (single isomer, unassigned) [M.52, 3-(4-(1,7-dimethyl-3-(pyridin-2-yl)-4,6,7,8-tetrahydro-1H-pyrazolo[3,4-e][1,4]thiazepin-4-yl)-3-methylphenyl)propan-1-ol], in that order: under 100 nM and under 50%.
Turning to `COc1ccc(C2SCCNc3c2c(-c2ccccn2)nn3C)c(C)c1` (stereo not drawn) [D.10], the IC50 in assay [1] is under 100 nM. The Emax in assay [2] was under 50%.
Take `CN(C)c1ccc(C2SCCNc3c2c(-c2ccccn2)nn3C)c(Cl)c1` (stereo not drawn) [D.6]: the IC50 in assay [1] lay in the range of 100 to 1000 nM. In assay [2], this molecule showed an Emax of under 50%.
`Cc1ccccc1C1SCCNc2c1c(-c1ccccn1)nn2C` (stereo not drawn) [D.14]: the IC50 in assay [1] is under 100 nM. In addition, the Emax in assay [2] is under 50%.
Consider `CCn1nc(-c2ccccn2)c2c1NCCSC2c1ccc(C#N)cc1C` (stereo not drawn) [G.10, 3-methyl-4-(1-ethyl-3-(pyridin-2-yl)-4,6,7,8-tetrahydro-1H-pyrazolo[3,4-e][1,4]thiazepin-4-yl)benzonitrile], for which the IC50 in assay [1] was under 100 nM. This molecule came in with an Emax in assay [2] of over 70%.
For `Cc1cc(C#CCO)ccc1[C@@H]1SC[C@H](C)Nc2c1c(-c1ccccn1)nn2C` (single isomer, unassigned) [M.71, 3-(4-(1,7-dimethyl-3-(pyridin-2-yl)-4,6,7,8-tetrahydro-1H-pyrazolo[3,4-e][1,4]thiazepin-4-yl)-3-methylphenyl)prop-2-yn-1-ol], the IC50 in assay [1] was under 100 nM. The Emax in assay [2] was under 50%.
As for `CCn1nc(-c2ccccn2)c2c1N[C@H](C)CS[C@H]2c1ccc(C(N)=O)cc1C` (single isomer, unassigned) [M.46, 4-(1-ethyl-7-methyl-3-(pyridin-2-yl)-4,6,7,8-tetrahydro-1H-pyrazolo[3,4-e][1,4]thiazepin-4-yl)-3-methylbenzamide], the IC50 in assay [1] is under 100 nM. Also, in assay [2], the Emax was over 50%.
For the molecule `Cc1cc(Cl)ccc1[C@H]1S[C@@H](CCO)CNc2c1c(C)nn2C` (single isomer, unassigned) [M.15, 2-[4-(4-chloro-2-methyl-phenyl)-1,3-dimethyl-4,6,7,8-tetrahydro-1H-pyrazolo[3,4-e][1,4]thiazepin-6-yl]-ethanol], the IC50 in assay [1] is 100 to 1000 nM. In assay [2], this molecule yielded an Emax of over 70%.
For `Cn1nc(-c2ccccn2)c2c1NCCSC2c1ccc(Cl)cc1C1CC1` (stereo not drawn) [D.38], in assay [1], the IC50 was under 100 nM. Besides, the Emax in assay [2] is over 50%.
Take `Cc1cc(Cl)ccc1[C@@H]1S[C@@H](CCO)CNc2c1c(-c1ccccn1)nn2C` (single isomer, unassigned) [M.13, 2-(4-(4-chloro-2-methylphenyl)-1-methyl-3-(pyridin-2-yl)-4,6,7,8-tetrahydro-1H-pyrazolo[3,4-e][1,4]thiazepin-6-yl)ethanol]: in assay [1], the IC50 is under 100 nM. In assay [2], this molecule returned an Emax of under 50%.
In the case of `Cc1cc(Br)ccc1[C@H]1SC[C@H](C(N)=O)Nc2c1c(-c1ccccn1)nn2C` (racemic), the IC50 in assay [1] was in the range of 100 to 1000 nM. The molecule further returned a maximal effect (Emax) in assay [2] of under 50%.
Turning to `CCn1nc(-c2ccccn2)c2c1N[C@@H](C)CS[C@H]2c1ccc(CCC(C)(C)O)cc1C` (single isomer, unassigned) [M.39, 4-(4-(1-ethyl-7-methyl-3-(pyridin-2-yl)-4,6,7,8-tetrahydro-1H-pyrazolo[3,4-e][1,4]thiazepin-4-yl)-3-methylphenyl)-2-methylbutan-2-ol], the IC50 in assay [1] was under 100 nM. The molecule also showed an Emax in assay [2] of over 70%.
In the case of `Cn1nc([C@@H]2CCCN2)c2c1NCCSC2c1ccc(Cl)cc1Cl` (mixture of isomers), the IC50 in assay [1] is over 10000 nM. The molecule also came in with an Emax in assay [2] of under 50%.
As to `CN(C)c1ccc(-c2nn(C)c3c2C(c2ccc(Cl)cc2Cl)SCCN3)cc1` (stereo not drawn) [D.31], the IC50 in assay [1] is 1000 to 10000 nM. This molecule also had an Emax in assay [2] of under 50%.
Consider `CCn1nc(-c2ccccn2)c2c1N[C@@H](C)CS[C@H]2c1ccc(CCCO)cc1C` (single isomer, unassigned) [M.36, 3-(4-(1-ethyl-7-methyl-3-(pyridin-2-yl)-4,6,7,8-tetrahydro-1H-pyrazolo[3,4-e][1,4]thiazepin-4-yl)-3-methylphenyl)propan-1-ol], for which the IC50 in assay [1] is under 100 nM. In assay [2], this molecule displayed an Emax of over 60%.
In the case of `Cc1cc(Cl)cnc1C1SC(C)(C)CNc2c1c(C1CC1)nn2C` (stereo not drawn) [D.50], in assay [1], the IC50 fell in the range of 100 to 1000 nM. The same molecule gave an Emax in assay [2] of under 50%.
For `Cc1cc(Br)ccc1C1SC(C)CNc2c1c(C1CC1)nn2C` (stereo not drawn) [D.51, 4-(4-bromo-2-methyl-phenyl)-3-cyclopropyl-1,6-dimethyl-4,6,7,8-tetrahydropyrazolo[3,4-e][1,4]thiazepine], in assay [1], the IC50 fell in the range of 100 to 1000 nM. Besides, the Emax in assay [2] was under 50%.
As for `CCn1nc(-c2ccccn2)c2c1NC(=O)CCC2c1ccc(C(=O)Nc2cccnc2C)cc1C` (stereo not drawn) [O.2], in assay [1], the IC50 lay in the range of 100 to 1000 nM. The molecule further displayed an Emax in assay [2] of over 70%.
For `Cc1ccc(Br)cc1C1SC(C)(C)C=Nc2c1c(C1CC1)nn2C` (stereo not drawn) [D.54], in that order: 1000 to 10000 nM and under 50%.
As for `COc1ccc(C)c(C2SCCNc3c2c(-c2ccccn2)nn3C)c1` (stereo not drawn) [D.28], the IC50 in assay [1] is 1000 to 10000 nM. Also, the Emax in assay [2] was under 50%.
For `Cn1nc(-c2ccccn2)c2c1NCCSC2c1ccc(Br)cc1Cl` (stereo not drawn), in that order: under 100 nM and under 50%.
Take `CC(C)c1nn(C)c2c1C(c1ccc(Cl)cc1Cl)SC(C)(C)CN2` (stereo not drawn) [D.64]: the IC50 in assay [1] is 100 to 1000 nM. Moreover, in assay [2], the Emax was under 50%.
For `Cc1cc(C(=O)Nc2cccnc2C)ccc1C1SCC(CO)Nc2c1c(-c1ccccn1)nn2C` (single isomer, unassigned), in assay [1], the IC50 is under 100 nM. Moreover, the Emax in assay [2] is over 70%.
